From patent US6600069B2, “Benzene tricarboxylic acid derivatives as insulin receptor activators” (Telik, Inc., priority 2000, dated 2003) come the findings set out here.

Read-outs that look alike come from different tables or passages of the source.

Assay [1] concerns the target T1, β-kinase domain of the human insulin receptor (CKD) (Homo sapiens, UniProt P06213).
T1 construct: The complete β-kinase domain of the human insulin receptor (CKD); made in house
In words: 32P-cytoplasmic kinase domain (CKD) autophosphorylation assay. It counts as biochemical. The note with it: 32P incorporated into CKD band, 10 minutes at room temperature, 50 μM ATP; test concentration not given. How it is done:
^32P-cytoplasmic Kinase Domain (CKD) Autophosphorylation Assay
The complete β-kinase domain of the human insulin receptor (CKD) was expressed in, and purified from, baculovirus. CKD (4.0 μg/ml), in a solution of 29 mM HEPES (pH 7.6), 0.05% Triton X-100, 10 mM MgCl2, 2 mM MnCl2 (50 μl final volume), was combined with 50 μM ATP, and 5 μCi ^32P-ATP (3000 Ci/mmol.). A test compound, or the vehicle (DMSO), was added to a final DMSO concentration of 1%. The mixture was incubated for 10 minutes at room temperature. The reaction was terminated by the addition of 10 μl of 200 mM EDTA. A 30 μl volume was removed, mixed with 5 μl of 6× Laemmeli sodium dodecyl sulfate (SDS) treatment buffer, and heated to 95° C. for 5 minutes. A 20 μl aliquot was then run on an SDS-PAGE gel. The radioactivity incorporated into the CKD band is quantified by phosphorimaging of the gel, or scintillation counting of the excised bands.
The potency of a compound for increasing phosphorylation is expressed as a percentage of the vehicle level.

The subject of assay [2] is 3T3 L1 fibroblasts differentiated to adipocytes. In words: Glucose transport activity (14C-2-deoxy-D-glucose uptake). In kind it is cell-based. How it is done:
Glucose Transport Activity
3T3 L1 fibroblasts (ATCC) were grown in Dulbecco's modified Eagie's medium (DMEM) with 10% fetal bovine serum (FBS). The cells were plated at a density of 3×10^4 cells/well in 24-well plates. Two days after confluence was reached, the cells were treated for 3 days with […] isobutylmethylxanthine (IBMX), 1 μM dexamethasone, and 1.7 μM insulin. The cells were then transferred to DMEM with 10% fresh bovine serum with 1.7 μM insulin for 2 more days. The cells were maintained in DMEM with 10% FBS for an additional 4 days. Finally the cells were serum starved overnight in 0.1% bovine serum albumin (BSA) in DMEM prior to exposure to the test compounds.
The following day, the medium was replaced with 150 mM NaCl, 1.7 mM KCl, 0.9 mM CaCl2, K2HPO4 (pH 7.4) to which was added either the experimental compounds, or their vehicle (DMSO). Insulin or its vehicle (0.01% BSA) was diluted in the assay buffer (containing test compound or vehicle, respectively) to a final concentration of 5.6 nM. After incubation for 30 min at 37° C., 0.5 μCi/ml of ^14C-2-deoxy-D-glucose was added, and the incubation was continued for additional 30 min at 37° C. The cells were then washed 3 times with ice-cold PBS/20 mM glucose and lysed in 250 μl of lysis buffer (50 mM HEPES pH 7.6, 1% Triton X-100) for 30 min at room temperature. Radioactivity in the lysate was quantified by scintillation counting.
Once ^14C-2-deoxy-D-glucose is transported into the cell it is not released. Glucose transport is, therefore, proportional to the amount of radioactivity in the lysate. The concentration of compound necessary to produce an increase in glucose transport greater than the sum of the standard deviation of the vehicle control plus the largest standard deviation of a test sample (generally 150% of the vehicle control) was recorded as the EC (effective concentration) The results of the glucose transport activity assay are shown in Table 2,

[3] abbreviates: concentration producing increase in glucose transport generally 150% of the vehicle control, insulin 5.6 nM, read-out: Glucose Transport EC (effective concentration).
The mark [4] stands for this setting: Mus musculus, 3T3-L1, concentration producing increase in glucose transport generally 150% of the vehicle control, insulin 5.6 nM, read-out: Glucose Transport EC (effective concentration).
The mark [5] stands for this setting: Mus musculus, 3T3-L1, no EC recorded, not tested above 3.2 μM, insulin 5.6 nM, read-out: Glucose Transport EC (effective concentration), cells printed NT.

T1 sequence (P06213 980-1382 limits assumed): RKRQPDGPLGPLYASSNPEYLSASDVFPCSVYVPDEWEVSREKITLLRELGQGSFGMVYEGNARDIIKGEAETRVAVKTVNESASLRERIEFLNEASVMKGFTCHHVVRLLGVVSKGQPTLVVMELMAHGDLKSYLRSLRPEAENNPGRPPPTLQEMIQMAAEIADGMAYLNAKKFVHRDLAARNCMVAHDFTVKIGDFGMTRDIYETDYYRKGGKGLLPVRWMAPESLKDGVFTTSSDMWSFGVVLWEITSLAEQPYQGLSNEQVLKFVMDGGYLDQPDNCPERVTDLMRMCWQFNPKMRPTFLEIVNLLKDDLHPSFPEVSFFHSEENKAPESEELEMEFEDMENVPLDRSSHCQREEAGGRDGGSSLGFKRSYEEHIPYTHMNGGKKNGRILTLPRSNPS

As to “3,5-bis[N-(6-sulfonaphthyl)carbamoyl] benzoic acid [Compound 5]”, the “CKD phosphorylation (percentage of the vehicle level)” value in assay [1] amounted to 115.6%. Besides, the EC50 in assay [2] (setting [3]) was determined as 10 µM.

Turning to `O=C(O)c1ccc(NC(=O)c2cc(C(=O)Nc3ccc(C(=O)O)cc3)cc(C(=O)Nc3ccc(C(=O)O)cc3)c2)cc1` [Compound 1, 4-({3,5-bis[N-(4-carboxyphenyl)carbamoyl]phenyl}carbonylamino)benzoic acid], the “CKD phosphorylation (percentage of the vehicle level)” value in assay [1] came to 103.7%. Besides, the EC50 in assay [2] (setting [4]) was 3.2 µM.

Take `O=C(Nc1cccc2cc(S(=O)(=O)O)ccc12)c1cc(C(=O)Nc2cccc3cc(S(=O)(=O)O)ccc23)cc(C(=O)Nc2cccc3cc(S(=O)(=O)O)ccc23)c1` [Compound 2, 5-({3,5-bis[N-(6-sulfonaphthyl)carbamoyl]phenyl}carbonylamino)naphthalene-2-sulfonic acid]: the “CKD phosphorylation (percentage of the vehicle level)” value in assay [1] worked out at 136.8%. Also, the EC50 in assay [2] (setting [3]) is 3.2 µM.

As to `O=C(Nc1ccc(S(=O)(=O)O)cc1)c1cc(C(=O)Nc2ccc(S(=O)(=O)O)cc2)cc(C(=O)Nc2ccc(S(=O)(=O)O)cc2)c1` [Compound 3, 4-({3,5-bis[N-(4-sulfophenyl)carbamoyl]phenyl}carbonylamino)benzenesulfonic acid], the “CKD phosphorylation (percentage of the vehicle level)” value in assay [1] came to 98.9%. For the same compound, the EC50 in assay [2] (setting [4]) was determined as 3.2 µM.

In the case of `O=C(Nc1cccc2ccc(S(=O)(=O)[O-])cc12)c1cc(C(=O)Nc2cccc3ccc(S(=O)(=O)[O-])cc23)cc(C(=O)Nc2cccc3ccc(S(=O)(=O)[O-])cc23)c1.[Na+].[Na+].[Na+]` [Compound 4, 8-({3,5-bis[N-(7-sulfonaphthyl)carbamoyl]phenyl}carbonylamino)naphthalene-2-sulfonic acid], in assay [1], the “CKD phosphorylation (percentage of the vehicle level)” value is on record as 134.9%. Moreover, in assay [2] (Mus musculus, 3T3-L1, read-out: Glucose Transport EC (effective concentration)), the EC50 is 3.2 µM.

Turning to `O=C(Nc1cccc2c(S(=O)(=O)O)cccc12)c1cc(C(=O)Nc2cccc3c(S(=O)(=O)O)cccc23)cc(C(=O)Nc2cccc3c(S(=O)(=O)O)cccc23)c1` [Compound 6, 5-({3,5-bis[N-(5-sulfonaphthyl)carbamoyl]phenyl}carbonylamino)naphthalene-sulfonic acid], in assay [1], the “CKD phosphorylation (percentage of the vehicle level)” value came out at 122.7%. In addition, the EC50 in assay [2] (setting [3]) turned out to be 3.2 µM.

As for `O=C(Nc1ccc(S(=O)(=O)O)c2ccccc12)c1cc(C(=O)Nc2ccc(S(=O)(=O)O)c3ccccc23)cc(C(=O)Nc2ccc(S(=O)(=O)O)c3ccccc23)c1` [Compound 7, 4-({3,5-bis[N-(4-sulfonaphthyl)carbamoyl]pheny}carbonylamino)naphthalene-sulfonic acid], in assay [1], the “CKD phosphorylation (percentage of the vehicle level)” value was 114.1%. The EC50 in assay [2] (setting [3]) was 3.2 µM.

For `O=C(Nc1ccccc1S(=O)(=O)O)c1cc(C(=O)Nc2ccccc2S(=O)(=O)O)cc(C(=O)Nc2ccccc2S(=O)(=O)O)c1` [Compound 8, 2-({3,5-bis[N-(2-sulfophenyl)carbamoyl]phenyl}carbonylamino)benzenesulfonic acid], in assay [1], the “CKD phosphorylation (percentage of the vehicle level)” value came out at 113.2%. The EC50 in assay [2] (setting [4]) came out at 3.2 µM.

On to `O=C(Nc1ccc2ccccc2c1S(=O)(=O)O)c1cc(C(=O)Nc2ccc3ccccc3c2S(=O)(=O)O)cc(C(=O)Nc2ccc3ccccc3c2S(=O)(=O)O)c1` [Compound 9, 2-({3,5-bis[N-(1-sulfo(2-naphthyl))carbamoyl]phenyl}carbonylamino)naphthalene-sulfonic acid], for which the “CKD phosphorylation (percentage of the vehicle level)” value in assay [1] amounted to 98.8%. In addition, in assay [2] (no EC recorded, not tested above 3.2 μM, insulin 5.6 nM, read-out: Glucose Transport EC (effective concentration), cells printed NT), the EC50 is more than 3.2 µM.

Turning to `O=C(Nc1cccc(S(=O)(=O)O)c1)c1cc(C(=O)Nc2cccc(S(=O)(=O)O)c2)cc(C(=O)Nc2cccc(S(=O)(=O)O)c2)c1` [Compound 10, 3-({3,5-bis[N-(3-sulfophenyl)carbamoyl]phenyl}carbonylamino)benzenesulfonic acid], the “CKD phosphorylation (percentage of the vehicle level)” value in assay [1] amounted to 92.0%. For the same compound, in assay [2] (setting [4]), the EC50 was found to be 3.2 µM.

With `O=C(Nc1ccc2cc(S(=O)(=O)O)ccc2c1)c1cc(C(=O)Nc2ccc3cc(S(=O)(=O)O)ccc3c2)cc(C(=O)Nc2ccc3cc(S(=O)(=O)O)ccc3c2)c1` [Compound 11, 6-({3,5-bis[N-(6-sulfo(2-naphthyl))carbamoyl]phenyl}carbonylamino)naphthalene-2-sulfonic acid], the “CKD phosphorylation (percentage of the vehicle level)” value in assay [1] is on record as 148.2%. Further, in assay [2] (setting [5]), the EC50 was more than 3.2 µM.

As for `O=C(Nc1ccc2c(S(=O)(=O)O)cccc2c1)c1cc(C(=O)Nc2ccc3c(S(=O)(=O)O)cccc3c2)cc(C(=O)Nc2ccc3c(S(=O)(=O)O)cccc3c2)c1` [Compound 12, 6-({3,5-bis[N-(5-sulfo(2-naphthyl))carbamoyl]phenyl}carbonylamino)naphthalene-sulfonic acid], the “CKD phosphorylation (percentage of the vehicle level)” value in assay [1] is 136.6%. The EC50 in assay [2] (setting [3]) came out at 3.2 µM.

As for `O=C(Nc1ccc2ccc(S(=O)(=O)O)cc2c1)c1cc(C(=O)Nc2ccc3ccc(S(=O)(=O)O)cc3c2)cc(C(=O)Nc2ccc3ccc(S(=O)(=O)O)cc3c2)c1` [Compound 13, 7-({3,5-bis[N-(7-sulfo(2-naphthyl))carbamoyl]phenyl}carbonylamino)naphthalene-2-sulfonic acid], in assay [1], the “CKD phosphorylation (percentage of the vehicle level)” value is 125.5%. Also, in assay [2] (setting [5]), the EC50 is more than 3.2 µM.

Consider `O=C(Nc1ccccc1C(=O)O)c1cc(C(=O)Nc2ccccc2C(=O)O)cc(C(=O)Nc2ccccc2C(=O)O)c1` [Compound 14, 2-({3,5-bis[N-(2-carboxyphenyl)carbamoyl]phenyl}carbonylamino)benzoic acid], for which, in assay [1], the “CKD phosphorylation (percentage of the vehicle level)” value was 105.3%. In addition, in assay [2] (setting [5]), the EC50 was more than 3.2 µM.

Take `O=C(Nc1cccc2cccc(S(=O)(=O)O)c12)c1cc(C(=O)Nc2cccc3cccc(S(=O)(=O)O)c23)cc(C(=O)Nc2cccc3cccc(S(=O)(=O)O)c23)c1` [Compound 15, 8-({3,5-bis[N-(8-sulfonaphthyl)carbamoyl]phenyl}carbonylamino)naphthalene-sulfonic acid]: in assay [1], the “CKD phosphorylation (percentage of the vehicle level)” value turned out to be 156.0%. For the same compound, the EC50 in assay [2] (setting [3]) came out at 3.2 µM.

In the case of `COC(=O)c1cc(NC(=O)c2cc(C(=O)Nc3cc(C(=O)OC)cc(C(=O)OC)c3)cc(C(=O)Nc3cc(C(=O)OC)cc(C(=O)OC)c3)c2)cc(C(=O)OC)c1` [Compound 16, methyl 3-[(3,5-bis{N-[3,5-bis(methoxycarbonyl)phenyl]carbamoyl}phenyl)-carbonylamino]-5-(methoxycarbonyl)benzoate], the “CKD phosphorylation (percentage of the vehicle level)” value in assay [1] was determined as 83.7%. Besides, the EC50 in assay [2] (setting [4]) is 1.6 µM.

`O=C(O)c1ccc(CNC(=O)c2cc(C(=O)NCc3ccc(C(=O)O)cc3)cc(C(=O)NCc3ccc(C(=O)O)cc3)c2)cc1` [Compound 17, 4-{[(3,5-bis{N-[(4-carboxyphenyl)methyl]carbamoyl}phenyl)carbonylamino]-methyl}benzoic acid]: the “CKD phosphorylation (percentage of the vehicle level)” value in assay [1] is recorded as 90.4%. The EC50 in assay [2] (setting [4]) amounted to 3.2 µM.

`COC(=O)c1cccc(NC(=O)c2cc(C(=O)Nc3cccc(C(=O)OC)c3)cc(C(=O)Nc3cccc(C(=O)OC)c3)c2)c1` [Compound 18, methyl 3-[(3,5-bis{N-[3-(methoxycarbonyl)phenyl]carbamoyl}phenyl)carbonyl-amino]benzoate]: the “CKD phosphorylation (percentage of the vehicle level)” value in assay [1] worked out at 94.54%. In addition, the EC50 in assay [2] (setting [4]) turned out to be 3.2 µM.

With `COC(=O)c1ccc(CNC(=O)c2cc(C(=O)NCc3ccc(C(=O)OC)cc3)cc(C(=O)NCc3ccc(C(=O)OC)cc3)c2)cc1` [Compound 19, methyl 4-({[3,5-bis(N-{[4-(methoxycarbonyl)phenyl]methyl}carbamoyl)phenyl]-carbonylamino}methyl)benzoate], the “CKD phosphorylation (percentage of the vehicle level)” value in assay [1] was 104.0%. The EC50 in assay [2] (setting [5]) is more than 3.2 µM.
